Results as given in patent US9637469B2, “Pyridine derivative” (Teijin Pharma Limited, priority 2012, dated 2017).
pIC50: −log10 of the molar value.

Target: T1, human URAT1 (Homo sapiens, UniProt Q96S37)
T1 construct: Full-length cDNA of human URAT1 (hURAT1)
T1 sequence (Q96S37 1-553): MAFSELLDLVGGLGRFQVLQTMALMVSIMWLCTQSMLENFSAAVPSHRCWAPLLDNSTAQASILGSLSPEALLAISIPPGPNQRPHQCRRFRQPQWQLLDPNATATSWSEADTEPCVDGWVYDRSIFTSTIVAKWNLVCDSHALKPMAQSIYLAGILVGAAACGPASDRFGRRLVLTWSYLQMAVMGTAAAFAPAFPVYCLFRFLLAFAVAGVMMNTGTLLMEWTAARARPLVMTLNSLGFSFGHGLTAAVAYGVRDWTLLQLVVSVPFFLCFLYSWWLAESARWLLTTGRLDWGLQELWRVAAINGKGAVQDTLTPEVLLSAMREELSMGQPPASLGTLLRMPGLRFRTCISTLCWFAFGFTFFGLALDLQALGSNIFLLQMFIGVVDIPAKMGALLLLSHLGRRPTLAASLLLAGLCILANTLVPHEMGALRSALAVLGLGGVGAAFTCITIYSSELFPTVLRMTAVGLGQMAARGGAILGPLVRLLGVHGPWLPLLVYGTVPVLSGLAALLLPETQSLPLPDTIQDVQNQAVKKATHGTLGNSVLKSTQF
Assay: Test for inhibition of uric acid transport using human URAT1-expressing cells;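 note: three stars up to 0.2 µM two stars 0.2-2 µM one star 2-20 µM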
Type: cell-based
Conditions: HEK 293 cells expressing human URAT1; 14C-labeled uric acid 25 μM; uptake 37° C. for 5 min
How it was run: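 HEK293 cells stably transfected with full-length hURAT1, preincubated 10 min at 37 °C in HBSS with NaCl replaced by Na gluconate. Uptake of 25 μM ¹⁴C-uric acid with compound ran 5 min at 37 °C, then scintillation counting. IC50 derived from % of DMSO-control URAT1-specific uptake.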

SMILES | Inhibitory Activity (IC50 of uric acid transport inhibition)
Cc1cncc(-c2ccc(C(=O)O)n2Cc2cc(Cl)ccc2Cl)c1 [Compound B13, 1-(2,5-dichlorobenzyl)-2-(5-methylpyridin-3-yl)-1H-pyrrole-5-carboxylic acid] | * * *
O=C(O)C1(Sc2cnc(-c3cncc(Cl)c3)n2Cc2cc(Cl)ccc2Cl)CCC1 [Compound A263, 1-((2-(5-chloropyridin-3-yl)-1-(2,5-dichlorobenzyl)-1H-imidazol-5-yl)thio)cyclobutanecarboxylic acid] | * *
Cc1ccncc1Oc1nc(C)c(C(=O)O)n1Cc1cc(Cl)ccc1Cl [Compound A256, 1-(2,5-dichlorobenzyl)-4-methyl-2-((4-methylpyridin-3-yl)oxy)-1H-imidazole-5-carboxylic acid] | * * *
O=C(O)c1ccc(-c2cncc(F)c2)n1Cc1csc2cccc(Cl)c12 [Compound B16, 1-((4-chlorobenzo[b]thiophen-3-yl)methyl)-2-(5-fluoropyridin-3-yl)-1H-pyrrole-5-carboxylic acid] | * * *
CCCOc1cncc(-c2nc(C)c(C(=O)O)n2Cc2cc(Cl)ccc2Cl)c1 [Compound A185, 1-(2,5-dichlorobenzyl)-4-methyl-2-(5-propoxypyridin-3-yl)-1H-imidazole-5-carboxylic acid] | * * *
O=C(O)c1c(C2CC2)nc(-c2cccnc2)n1Cc1cc(F)cc2ccsc12 [Compound A86, 4-cyclopropyl-1-((5-fluorobenzo[b]thiophen-7-yl)methyl)-2-(pyridin-3-yl)-1H-imidazole-5-carboxylic acid] | * * *
Cc1ccc(C)c(Cn2c(-c3ccncc3)nc(C)c2C(=O)O)c1 [Compound A238, 1-(2,5-dimethylbenzyl)-4-methyl-2-(pyridin-4-yl)-1H-imidazole-5-carboxylic acid] | * *
Cc1nc(-c2cnc3ccccc3c2)n(Cc2cc(Cl)ccc2Cl)c1C(=O)O [Compound A67, 1-(2,5-dichlorobenzyl)-4-methyl-2-(quinolin-3-yl)-1H-imidazole-5-carboxylic acid] | * *
Cc1nc(-c2ccc(Cl)nc2)n(Cc2cc(Cl)ccc2Cl)c1C(=O)O [Compound A164, 2-(6-chloropyridin-3-yl)-1-(2,5-dichlorobenzyl)-4-methyl-1H-imidazole-5-carboxylic acid] | * *
CCC(O)(CC)c1nc(-c2cncc(C)c2)n(Cc2cc(Cl)ccc2Cl)c1C(=O)O [Compound A217, 1-(2,5-dichlorobenzyl)-4-(3-hydroxypentan-3-yl)-2-(5-methylpyridin-3-yl)-1H-imidazole-5-carboxylic acid] | * * *
COc1ncccc1-c1nc(C)c(C(=O)O)n1Cc1cc(Cl)ccc1Cl [Compound A162, 1-(2,5-dichlorobenzyl)-2-(2-methoxypyridin-3-yl)-4-methyl-1H-imidazole-5-carboxylic acid] | * *
Cc1nc(-c2cccnc2)n(Cc2cc(Cl)ccc2C(F)(F)F)c1C(=O)O [Compound A44, 1-(5-chloro-2-(trifluoromethyl)benzyl)-4-methyl-2-(pyridin-3-yl)-1H-imidazole-5-carboxylic acid] | * *

Same assay, conditions: HEK 293 cells expressing human URAT1; 14C-labeled uric acid 25 μM; uptake 37° C. for 5 min; read-out: Inhibitory Activity (IC50 of uric acid transport inhibition)

SMILES | pIC50
O=C(O)c1c(C(F)(F)F)nc(-c2cccnc2)n1Cc1csc2cccc(C(F)(F)F)c12 [Compound A32] | 4.70 to 5.70
Cc1ccc2ccccc2c1Cn1c(-c2cccnc2)nc(C)c1C(=O)O [Compound A4] | 4.70 to 5.70
Cc1nc(-c2cccnc2)n(Cc2ccccc2OC(F)(F)F)c1C(=O)O [Compound A62] | 4.70 to 5.70
